Experimental data from PubChem BioAssay (NCI).
Where “and” joins values, the source holds several entries; their conditions need not be identical. Equal values may be shown once.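 Growth conditions: 96-well plates. Treatment: test compound, 48 hours, 5 concentrations. Analysis: linear interpolation between bracketing concentrations; unreached endpoints set to highest concentration. GI50 = concentration required for 50% inhibition of growth. TGI: total growth inhibition.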 Where a SMILES comes first, the peptide text is derived from it. [ ]: non-standard residue; d: D form. The star is where a group is joined. Bn2Val = CC(C)[C@@H](C(=O)*)N(Cc1ccccc1)Cc1ccccc1; NH(3,4-diMeO-benzyl) = COc1ccc(CN*)cc1OC; NMeV = CN[C@H](C(=O)O)C(C)C; dNMeA = CN[C@H](C)C(=O)O

Assays:
Test in all cases: NCI tumour cell line growth inhibition, 48 h
SK-MEL-5 melanoma = test system: SK-MEL-5 melanoma
HOP-92 NSCLC = test system: HOP-92 NSCLC
OVCAR-8 ovarian = test system: OVCAR-8 ovarian
SR leukemia = test system: SR leukemia
SW-620 colon = test system: SW-620 colon
RPMI-8226 leukemia = test system: RPMI-8226 leukemia
A498 renal = test system: A498 renal
HL-60(TB) leukemia = test system: HL-60(TB) leukemia
SNB-19 CNS = test system: SNB-19 CNS
EKVX NSCLC = test system: EKVX NSCLC

SMILES	GI50 (SK-MEL-5 melanoma)	TGI (SK-MEL-5 melanoma)	GI50 (HOP-92 NSCLC)	TGI (HOP-92 NSCLC)	GI50 (OVCAR-8 ovarian)	TGI (OVCAR-8 ovarian)	GI50 (SR leukemia)	GI50 (SW-620 colon)	TGI (SW-620 colon)	GI50 (RPMI-8226 leukemia)	TGI (RPMI-8226 leukemia)	GI50 (A498 renal)	TGI (A498 renal)	GI50 (HL-60(TB) leukemia)	TGI (HL-60(TB) leukemia)	TGI (SNB-19 CNS)	TGI (EKVX NSCLC)	GI50 (SNB-19 CNS)	GI50 (EKVX NSCLC)	TGI (SR leukemia)
O=C(O)CCCc1ccc(N(CCCl)CCCl)cc1	20.3 µM and 110 µM	39.5 µM and 210 µM and 225 µM	25.2 µM and 99.1 µM	46.6 µM and 199 µM and 175 µM	17.5 µM and 68 µM	57.8 µM and 366 µM and 159 µM	0.922 µM	13.8 µM and 107 µM	51.4 µM and 356 µM and 399 µM	13 µM	81.1 µM and 447 µM and 335 µM	28.3 µM	48.4 µM and 302 µM	0.979 µM	21.2 µM and 121 µM					
O=C(O)c1cc(S(=O)(=O)N=NC=C2c3ccccc3N(O)c3ccccc32)ccc1O		32.3 µM		30.1 µM		> 100 µM			> 100 µM		76.6 µM		41 µM		23.7 µM	> 100 µM	> 100 µM			
O=C(N/N=C/c1cccc(O)c1O)N/N=C/c1cccc(O)c1O				77.9 µM		> 100 µM			> 100 µM		76.8 µM		> 100 µM			> 100 µM	> 100 µM			
Cn1c(-c2nonc2N)nc2cnccc21	> 25 µM	> 25 µM	8.73 µM	> 25 µM	> 25 µM	> 25 µM		> 25 µM	> 25 µM	> 25 µM	> 25 µM	16 µM	> 25 µM	> 25 µM	> 25 µM	> 25 µM	> 25 µM	> 25 µM	16.5 µM	
O=S(=O)(O)C(O)/C=C/c1ccccc1 (stereo not drawn)		> 100 µM				> 100 µM			> 100 µM				> 100 µM		> 100 µM	> 100 µM	> 100 µM			> 100 µM
COc1cc2c(cc1O)[C@H](Cc1ccc(Oc3cc(C[C@H]4c5cc(OC)c(OC)cc5CCN4C)ccc3OC)cc1)NCC2				20.1 µM		27.8 µM			25.5 µM		46.8 µM		28.3 µM		34.6 µM	31.9 µM				30.1 µM
COC(=O)C(CC(=O)c1cc2c(cc1I)OCO2)Cc1cc(OC)c(OC)c(OC)c1I (stereo not drawn)		> 100 µM		> 100 µM		> 100 µM			> 100 µM		> 100 µM				> 100 µM	> 100 µM	> 100 µM			> 100 µM
O=C1CSC(N2CCN(c3cccc(Cl)c3)CC2)=N1	> 100 µM	> 100 µM			> 100 µM	> 100 µM	> 100 µM	> 100 µM	> 100 µM	> 100 µM	> 100 µM	> 100 µM	> 100 µM	> 100 µM	> 100 µM	> 100 µM	> 100 µM	> 100 µM	> 100 µM	> 100 µM
O=c1[nH]c(=O)n(C2CC(O)C(CO)O2)cc1C#Cc1c(F)c(F)c(F)c(F)c1F (stereo not drawn)		> 100 µM				> 100 µM			> 100 µM		> 100 µM					> 100 µM	> 100 µM			> 100 µM
Clc1ccc(Cc2nc3cc4ccccc4cc3[nH]2)cc1	3.17 µM	> 100 µM	19.5 µM	> 100 µM	7.92 µM	37.1 µM		6.55 µM	> 100 µM	9.77 µM	> 100 µM	21.7 µM	> 100 µM	> 100 µM	> 100 µM	> 100 µM	> 100 µM	20 µM	26.9 µM	
COc1ccc(/C=C(/C(=O)O)c2cc(OC)c(OC)c(OC)c2)cc1		> 100 µM		> 100 µM		> 100 µM			> 100 µM		> 100 µM		> 100 µM			> 100 µM	> 100 µM			> 100 µM
NNC(=O)c1cnn(-c2ccnc3c(C(F)(F)F)cccc23)c1N	> 100 µM	> 100 µM	82.1 µM	> 100 µM	> 100 µM	> 100 µM		> 100 µM	> 100 µM	> 100 µM	> 100 µM			> 100 µM	> 100 µM	> 100 µM	> 100 µM	> 100 µM	> 100 µM	
CCOC(=O)c1c(N)n(-c2ccccc2)c(=S)n(-c2ccccc2)c1=O		> 100 µM		> 100 µM		> 100 µM			> 100 µM		> 100 µM				> 100 µM	> 100 µM				> 100 µM
CC(=O)c1ccc(N(/C=C/C(=O)C(F)(F)F)CC(=O)c2ccc(Cl)c(Cl)c2)cc1	17.7 µM	32.4 µM	13.5 µM	29 µM	16.1 µM	31.4 µM	3.59 µM	18.3 µM	34.8 µM	9.64 µM	36.6 µM	14.5 µM	28.2 µM			41.6 µM	38.5 µM	19.3 µM	19.9 µM	19.3 µM
C[C@]12CCC(=O)C=C1CC[C@@H]1C2CC[C@]2(C)NC(=O)C(C#N)CC12 (stereo partly drawn)		> 100 µM				> 100 µM			> 100 µM		> 100 µM		> 100 µM		> 100 µM					
O=C1CC[C@H]2CNC(=O)C[C@H]2C1		> 100 µM		> 100 µM		> 100 µM			> 100 µM		> 100 µM		> 100 µM		> 100 µM	> 100 µM	> 100 µM			
CC1=CCCC(OC(N)=O)C1 (stereo not drawn)		> 100 µM		> 100 µM		> 100 µM			> 100 µM		> 100 µM		> 100 µM		> 100 µM	> 100 µM	> 100 µM			
COc1ccc(CNC(=O)[C@@H](C)N(C)C(=O)[C@@H]2CCCN2C(=O)[C@H](C(C)C)N(C)C(=O)[C@@H](NC(=O)[C@H](C(C)C)N(Cc2ccccc2)Cc2ccccc2)C(C)C)cc1OC (Bn2Val-V[NMeV]P[dNMeA]-{NH(3,4-diMeO-benzyl)})		12.1 µM	10.2 µM	16.9 µM and 23.4 µM	16.3 µM	50 µM and > 100 µM			41.7 µM and 38 µM		20 µM and 18.6 µM		23.7 µM		11 µM and 9.45 µM	23.9 µM and > 100 µM	50 µM and 49.1 µM	> 100 µM	10.4 µM	
COc1ccc(N=Cc2cc(OC)c(OC)c(OC)c2)cc1		> 100 µM		> 100 µM		> 100 µM			30 µM		59.6 µM		> 100 µM			> 100 µM	> 100 µM			
